Source: patent US3944498A, “Germicidal detergent containing a thienyliodonium salt” (The Dow Chemical Company, priority 1973, dated 1976)
Like-named read-outs stand apart in the source and are kept apart here.

Legend:
S. aureus [1] = experiment: Agar dilution MIC in absence of soap, S. aureus; type: cell-based; conditions: Staphylococcus aureus; read-out: Minimum growth inhibitory concentration, S. aureus
Protocol: (§1) The growth-inhibitory activity of the below-indicated compounds against some microorganisms most relevant to the human skin was determined by standard agar dilution techniques to provide the data given in following Table 1.
(§2) In Table 1, the first column gives the chemical structures of the test compounds, while the additional columns give the names of the test organisms and the minimum inhibitory concentration in parts per million (p.p.m.) of the compounds listed for 100% growth inhibition against the particular microorganisms indicated. […] For each p.p.m. of test compound, 50 p.p.m. of Ivory soap was also present in the culture medium for part A of Table 1, while in part B of Table 1, the culture medium was free of any additive other than the test compound. The data for compounds 13 through 16 of part B of Table 1 were taken from Cannon U.S. Pat. No. 3,207,660 while those for compounds 17 and 18 were taken from trade literature.

S. typhosa [2] = experiment: Agar dilution MIC in absence of soap, S. typhosa; type: cell-based; conditions: read-out: Minimum growth inhibitory concentration, S. typhosa
Protocol: as §1, §2

P. aeruginosa [3] = experiment: Agar dilution MIC in absence of soap, P. aeruginosa; type: cell-based; conditions: Pseudomonas aeruginosa; read-out: Minimum growth inhibitory concentration, P. aeruginosa
Protocol: as §1, §2

S. aureus [4] = conditions: absence of soap; 13-16 from Cannon U.S. Pat. No. 3,207,660, 17-18 from trade literature; cited from earlier work
P. aeruginosa [5] = conditions: absence of soap, 13-16 from Cannon U.S. Pat. No. 3,207,660, 17-18 from trade literature, cited from earlier work
S. typhosa [6] = conditions: absence of soap; 17-18 from trade literature; cited from earlier work
mice = conditions: 12-15 from U.S. Pat. No. 3,207,660, 17, 18 from trade literature, cited from earlier work

| SMILES | MIC (S. aureus [1]) | MIC (S. typhosa [2]) | MIC (P. aeruginosa [3]) | Minimum growth inhibitory concentration, S. aureus (S. aureus [4]) | Minimum growth inhibitory concentration, P. aeruginosa (P. aeruginosa [5]) | Minimum growth inhibitory concentration, P. aeruginosa (P. aeruginosa [5]; listed as Compound 18 (Table 1)) | Minimum growth inhibitory concentration, S. typhosa (S. typhosa [6]) | Oral LD50 (mice) (mice) | Oral LD50 (mice) (mice; listed as Compound 17 (Table 2)) |
| --- | --- | --- | --- | --- | --- | --- | --- | --- | --- |
| COc1ccc([I+]c2cccc(C(F)(F)F)c2)cc1 [Compound 11 (Table 1)] | 10 µg/mL | 100 µg/mL | 500 µg/mL |  |  |  |  |  |  |
| FC(F)(F)c1cccc([I+]c2cccs2)c1 [Compound 12 (Table 1)] | < 1 µg/mL | 10 µg/mL | 50 µg/mL |  |  |  |  |  |  |
| Oc1cc(Cl)ccc1Oc1ccc(Cl)cc1Cl [Irgasan] |  |  |  | 1 ppm | more than 300 ppm | > 300 ppm | 1 ppm | 4,000 mg/kg | 4000 mg/kg |
